Measurements published in ChEMBL document CHEMBL4665817, “Immobilized Metal Affinity Chromatography as a Drug Discovery Platform for Metalloenzyme Inhibitors” (J Med Chem, 2020).
The source made the active and inactive calls. No cut-off for these calls is given here.

Assays:
Conditions in all cases: dose 2.55 µmol
[1] = Binding affinity to Zinc ion at 2.55 umol in presence of DTT by immobilized metal-ion affinity chromatography
[2] = Binding affinity to Nickel cation assessed as accounting ratio by measuring total compound detected/total compound adsorbed at 2.55 umol by immobilized metal-ion affinity chromatography
[3] = Binding affinity to Zinc ion assessed as retention ratio by measuring compound detected in elution fraction/total compound detected at 2.55 umol by immobilized metal-ion affinity chromatography
[4] = Binding affinity to Gallium ion assessed as performance ratio ratio by measuring product of accounting ratio and retention ratio at 2.55 umol by immobilized metal-ion affinity chromatography
[5] = Binding affinity to cupric ion assessed as retention ratio by measuring compound detected in elution fraction/total compound detected at 2.55 umol by immobilized metal-ion affinity chromatography
[6] = Binding affinity to Zinc ion assessed as performance ratio ratio by measuring product of accounting ratio and retention ratio at 2.55 umol by immobilized metal-ion affinity chromatography
[7] = Binding affinity to ferric ion assessed as accounting ratio by measuring total compound detected/total compound adsorbed at 2.55 umol by immobilized metal-ion affinity chromatography
[8] = Binding affinity to cupric ion assessed as performance ratio ratio by measuring product of accounting ratio and retention ratio at 2.55 umol by immobilized metal-ion affinity chromatography
[9] = Binding affinity to gallium ion assessed as accounting ratio by measuring total compound detected/total compound adsorbed at 2.55 umol by immobilized metal-ion affinity chromatography
[10] = Binding affinity to Nickel cation assessed as performance ratio ratio by measuring product of accounting ratio and retention ratio at 2.55 umol by immobilized metal-ion affinity chromatography
[11] = Binding affinity to Nickel cation assessed as retention ratio by measuring compound detected in elution fraction/total compound detected at 2.55 umol by immobilized metal-ion affinity chromatography
[12] = Binding affinity to cupric ion assessed as accounting ratio by measuring total compound detected/total compound adsorbed at 2.55 umol by immobilized metal-ion affinity chromatography
[13] = Binding affinity to Ferric ion assessed as retention ratio by measuring compound detected in elution fraction/total compound detected at 2.55 umol by immobilized metal-ion affinity chromatography
[14] = Binding affinity to zinc ion assessed as accounting ratio by measuring total compound detected/total compound adsorbed at 2.55 umol by immobilized metal-ion affinity chromatography
[15] = Binding affinity to Ferric ion assessed as performance ratio ratio by measuring product of accounting ratio and retention ratio at 2.55 umol by immobilized metal-ion affinity chromatography
[16] = Binding affinity to Gallium ion assessed as retention ratio by measuring compound detected in elution fraction/total compound detected at 2.55 umol by immobilized metal-ion affinity chromatography

Structure (SMILES) | Activity [1] | Ratio [2] | Ratio [3] | Ratio [4] | Ratio [5] | Ratio [6] | Ratio [7] | Ratio [8] | Ratio [9] | Ratio [10] | Ratio [11] | Ratio [12] | Ratio [13] | Ratio [14] | Ratio [15] | Ratio [16]
C[C@H](CSS[C@@H](Cc1ccccc1)C(=O)N[C@H]1CCS[C@H]2CCC[C@@H](C(=O)O)N2C1=O)C(=O)N1CCC[C@H]1C(=O)O | inactive |  |  |  |  |  |  |  |  |  |  |  |  |  |  | 
O=c1cccccc1O |  | 0.7 | 1 | 0 | 1 | 0.97 | 0 | 1.26 | 0 | 0.7 | 1 | 1.26 | 0 | 0.97 | 0 | 0
CC(=O)Nc1ccc(C(=O)Nc2ccccc2N)cc1 |  | 1 | 0 | 0 | 0 | 0 | 1.01 | 0 | 0.99 | 0.01 | 0.01 | 0.99 | 0 | 1.01 | 0 | 0
NCCCC[C@H](N[C@@H](CCc1ccccc1)C(=O)O)C(=O)N1CCC[C@H]1C(=O)O |  | 0.72 | 0 | 0 | 0 | 0 | 0.9 | 0 | 0.93 | 0 | 0 | 0.88 | 0 | 0.89 | 0 | 0
C[C@H](CS)C(=O)N1CCC[C@H]1C(=O)O |  | 0 | 1 | 0 | 0 | 1.17 | 0 | 0 | 0 | 0 | 0 | 0 | 0 | 1.17 | 0 | 0
Nc1ccc(C(=O)O)c(O)c1 |  | 0.83 | 0 | 0.52 | 0 | 0 | 0.15 | 0 | 0.69 | 0 | 0 | 0.87 | 0.51 | 0.87 | 0.08 | 0.74
COc1c(N2C[C@@H]3CCCN[C@@H]3C2)c(F)cc2c(=O)c(C(=O)O)cn(C3CC3)c12 |  | 0.89 | 1 | 0.02 | 0.95 | 1.05 | 0.21 | 0.24 | 0.16 | 0.89 | 1 | 0.25 | 0.73 | 1.05 | 0.15 | 0.14
Nc1ccccc1NC(=O)c1ccc(CNC(=O)OCc2cccnc2)cc1 |  | 0.35 | 0.01 | 0.01 | 0.02 | 0.01 | 0.99 | 0.01 | 0.98 | 0.21 | 0.6 | 0.59 | 0 | 0.83 | 0 | 0.01
O=C(/C=C/c1cccc(S(=O)(=O)Nc2ccccc2)c1)NO |  | 1.08 | 1 | 0.23 | 1 | 1.21 | 0 | 0.13 | 0.23 | 1.08 | 1 | 0.13 | 0 | 1.21 | 0 | 1
CC1(C)Cc2c(-c3ccccc3)c(-c3ccc(Cl)cc3)c(CC(=O)O)n2C1 |  | 1.03 | 0.03 | 0.06 | 0 | 0.03 | 0.97 | 0 | 1.08 | 0.03 | 0.03 | 1.03 | 0.39 | 1.05 | 0.37 | 0.06
Cc1ccc(Cl)c(Nc2ccccc2C(=O)O)c1Cl |  | 0.96 | 0 | 0 | 0 | 0 | 0.99 | 0 | 1.01 | 0 | 0 | 1.05 | 0 | 0.97 | 0 | 0
Cc1[nH]c2ccccc2c1CCNCc1ccc(/C=C/C(=O)NO)cc1 |  | 0.84 | 1 | 0 | 1 | 0.7 | 0.03 | 0.25 | 0 | 0.84 | 1 | 0.25 | 1 | 0.7 | 0.03 | 0
C[C@H](CSC(=O)c1ccccc1)C(=O)N1C[C@@H](Sc2ccccc2)C[C@H]1C(=O)O |  | 1.29 | 0.01 | 0.01 | 0 | 0.01 | 1.46 | 0 | 1.43 | 0.01 | 0.01 | 1.51 | 0 | 1.4 | 0 | 0.01
O=C(CCCCCCC(=O)Nc1ccccc1)NO |  | 1.14 | 1 | 0.41 | 0.61 | 1.19 | 0 | 0.08 | 0.41 | 1.14 | 1 | 0.14 | 0 | 1.19 | 0 | 1
O=C(N[C@H]1CCS[C@H]2CCC[C@@H](C(=O)O)N2C1=O)[C@H](Cc1ccccc1)SS[C@@H](Cc1ccccc1)C(=O)N[C@H]1CCS[C@H]2CCC[C@@H](C(=O)O)N2C1=O | inactive |  |  |  |  |  |  |  |  |  |  |  |  |  |  | 
C[C@H](N[C@@H](CCc1ccccc1)C(=O)O)C(=O)N1CCC[C@H]1C(=O)O |  | 0.81 | 0.01 | 0 | 0 | 0.01 | 1.02 | 0 | 1 | 0 | 0 | 0.99 | 0 | 0.98 | 0 | 0
O=C(O)c1cc(/N=N/c2ccc(S(=O)(=O)Nc3ccccn3)cc2)ccc1O |  | 0.89 | 0.79 | 0.82 | 0.63 | 0.48 | 0.79 | 0.63 | 0.83 | 0.89 | 1 | 1 | 1 | 0.61 | 0.79 | 0.99
O=C(N[C@H]1CCS[C@H]2CCC[C@@H](C(=O)O)N2C1=O)[C@@H](S)Cc1ccccc1 |  | 0.19 | 1 | 0 | 0 | 1.43 | 0 | 0 | 0 | 0.19 | 1 | 0 | 0 | 1.43 | 0 | 0
C[C@H](CSSC[C@@H](C)C(=O)N1CCC[C@H]1C(=O)O)C(=O)N1CCCC1C(=O)O (stereo partly drawn) | inactive |  |  |  |  |  |  |  |  |  |  |  |  |  |  | 
